Entries after “also recorded” stand apart in the source; their conditions may differ.

For experiment [1], the system named is human. Description: Accidental physical contact of a human with the compositions (Example 1). Particulars: accidental physical contact with Formulas (I), (II) and (III) together while synthesizing. In kind it is in vivo. The text has this:
A human came in physical contact with the compositions of the libido-enhancing therapeutics of Formula (I), Formula (II), and Formula (III) by accident while synthesizing the compositions.

The test system of experiment [2] is male rats. The experiment can be described thus: In vivo libido stimulation assessment (mounts of rat couples). The arrangement: species or system Rattus novergicus, Wistar. Particulars: for mount kinetics profile along the night: FIGS. 12A-12F, time after coupling. The protocol:
Female and male rats (Rattus novergicus) Wistar strain, with 200-280 g and 8-12 weeks old, were purchased from University of São Paulo Central Animal Care Unity. They were kept in controlled environment, including dark-light periods (12 hours each), temperature (22° to 25° C.), and with free access to water and food.
Female Wistar rats, weighing about 250 g, were ovariectomized. The procedure initiated inducing general anesthesia with Dopalen (Ketamin 70 mg/kg) and Anasedan (Xilazin 12 mg/kg), then abdominal wall was […] by the linea alba region, ovaries location, ligation of vessels supplying the ovaries and the procedure was completed with ovariectomy, itself, as well as the suture of the abdominal wall and skin. After surgery the animals received analgesic (tramadol 2 mg/kg), antibiotic (enrofloxacin, 10 mg/kg) and anti-inflammatory (Maxicam—2 mg/kg) for at least one week, or more if necessary.
Pseudo-estrus inducing. The females received estradiol (0.2 mg/day) subcutaneously for two weeks after ovariotomoy for pseudo-estrus state inducing. This condition was evaluated by vaginal smears each two days after estradiol treatment beginning. Sterile cotton-tipped swabs wetted in distilled water were gently and quickly introduced into the vaginal orifice, carefully rotated (one twist) against the vaginal wall. Rats were not anesthetized during smear collection. Afterwards, the collected sample of vaginal epithelial cells was placed on glass slides, dried at 37° C., and fixed in an ethanol-ether solution (1:1) for one minute.
The slides were then examined under light microscopy. Only females in pseudo-estrus conditions were used for libido stimulation assessment (PACCOLA et al, 2013).
Libido stimulation assessment. For libido stimulation assessments, first male rats, weighing about 250-280 g, had their penis anesthetized with 2% lidocaine by topical route 10 minutes before treatment. The three drugs were administered orally at 50 mg/kg each two days for six days (each rat received three doses). Nandrolone (IM) was used as the positive control group while olive oil and water were used as negative controls (orally administrated), as described below in TABLE 2. After one hour of treatment, couples were put together in a box, and a video camera with night vision was adequately positioned to encompass all the groups in the video, recording overnight the matches.
Analysis of the videos was performed according to the following parameters: time to first mating, duration of mounts, and quantity of mounts.
The libido studies focused the investigation in how drugs would stimulate male rats to increase matching. Considering that sexual activity in animals is related with reproduction and not only with pleasure, assessment of increase desire is particular subjective. To ensure that the observations were related with Central Nervous System modulation, 2% Lidocaine was topically applied at penis glans, to avoid any local stimulation.
The animals were treated each two days with 50 mg/Kg of test drugs (given orally), water and olive oil as negative control (given orally) and nandrolone (IM).

Setting [3] is: rats, 50 mg/Kg orally, nandrolone IM.

For `CC(=O)O[C@H]1CCC2C3CC[C@H]4CC(=O)CC[C@H]4C3CC[C@@]21C` (stereo partly drawn) [Formula (I), (5S,10R,13S,17S)-13-methyl-3-oxohexadecahydro-1H-cyclopenta[a]phenanthren-17yl acetate], in experiment [1], the arousal and libido result was “weekend-long period of arousal and increased libido”. In addition, in experiment [2] (FIG. 10, 50 mg/Kg orally each two days, three doses, nandrolone IM, compared with controls and other drugs), the “total number of mounts after each treatment” value is reported as “significantly increased”. For the same molecule, the “number of mounts per hour, difference to nandrolone” value in experiment [2] (FIG. 11, 50 mg/Kg orally, nandrolone IM) is listed as “more than twice”. Further, the “mount kinetics profile along the night” value was “low activity at the first three hours after coupling; also recorded: intense and sustainable activity was achieved after the third hour until the seventieth hour of observation” in experiment [2] (50 mg/Kg orally, nandrolone IM, listed as CAS 5138-34-1, 50 mg/kg); “took a long time to have some effect” in experiment [2] (50 mg/Kg orally, nandrolone IM, listed as CAS 5238-34-1, 50 mg/kg). Moreover, in experiment [2] (rats, 50 mg/Kg orally), the “stress or fatigue after each intercourse” value is “no kind of stress of fatigue was observed”. In experiment [2] (setting [3]), the libido stimulation result was “effective and sustainable late libido stimulation for greater than seven hours”.
`CC(=O)O[C@H]1CCC2C3CC[C@H]4C[C@@H](O)CC[C@H]4C3CC[C@@]21C` (stereo partly drawn) [Formula (II), (3S,5S,10R,13S,17S)-3-hydroxy-13-methylhexadecahydro-1H-cyclopenta[a]phenanthren-17yl acetate]: in experiment [1], the arousal and libido entry was “weekend-long period of arousal and increased libido”. In addition, in experiment [2] (50 mg/Kg orally, nandrolone IM), the “mount kinetics profile along the night” value is recorded as “total decrease of activity after 2 hours coupling”.
Regarding `C[C@]12CCC3C(CC[C@H]4CC(=O)CC[C@H]34)C1CC[C@@H]2O` (stereo partly drawn) [Formula (III), (5S,10S,13S,17S)-17-hydroxy-13-methyltetradecahydro-1H-cyclopenta[a]phenanthren-3(2H)-one], the arousal and libido result in experiment [1] is “weekend-long period of arousal and increased libido”. In experiment [2] (50 mg/Kg orally, nandrolone IM), the “mount kinetics profile along the night” value was “few mounts in subsequently hours”.
On to `C[C@]12CC[C@H]3[C@@H](CCC4=CC(=O)CC[C@@H]43)[C@@H]1CC[C@@H]2O` [Nandrolone, reference compound], for which the “mount kinetics profile along the night” value in experiment [2] (50 mg/Kg orally, nandrolone IM) was “low stimulation at the first three hours with a peak of activity at the fourth hour retuning to baseline (zero activity) at the sixth hour”. For the same molecule, in experiment [2] (setting [3]), the libido stimulation result is reported as “enhance libido early (hours)”.

(Values after patent US9855281B2, “Libido-enhancing therapeutic and use” (Scott Freeman Consultant, LLC, priority 2013, dated 2018).)
